Measurements taken from ChEMBL document CHEMBL4002568, “Synthesis, alkaline phosphatase inhibition studies and molecular docking of novel derivatives of 4-quinolones” (Eur J Med Chem, 2017).

How the values were obtained:
[1] = molecular target: T1, Alkaline phosphatase, tissue-nonspecific isozyme (Bos taurus, UniProt P09487); assay: Inhibition of bovine TNAP using CDP-star as substrate preincubated for 5 to 7 mins followed by substrate addition measured after 15 mins by spectrophotometric method
T1 sequence (P09487 whole entry): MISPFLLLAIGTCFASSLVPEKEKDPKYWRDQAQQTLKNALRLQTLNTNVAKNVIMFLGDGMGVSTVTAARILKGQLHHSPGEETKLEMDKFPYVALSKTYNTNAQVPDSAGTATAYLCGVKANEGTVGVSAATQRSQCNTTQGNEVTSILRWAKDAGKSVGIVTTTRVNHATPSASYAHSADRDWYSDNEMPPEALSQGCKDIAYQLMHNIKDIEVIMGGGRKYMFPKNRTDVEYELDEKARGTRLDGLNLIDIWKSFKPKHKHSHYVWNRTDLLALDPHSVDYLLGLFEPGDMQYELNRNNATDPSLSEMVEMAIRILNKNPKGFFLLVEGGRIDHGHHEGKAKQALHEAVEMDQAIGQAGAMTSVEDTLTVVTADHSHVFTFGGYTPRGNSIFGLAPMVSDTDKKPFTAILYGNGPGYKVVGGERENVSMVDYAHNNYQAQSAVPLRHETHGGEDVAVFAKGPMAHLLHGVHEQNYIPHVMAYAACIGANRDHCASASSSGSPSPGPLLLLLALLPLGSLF

[2] = molecular target: Intestinal-type alkaline phosphatase (Bos taurus) (UniProt P19111); assay: Inhibition of calf intestinal alkaline phosphatase at 0.2 mM using CDP-star as substrate preincubated for 5 to 7 mins followed by substrate addition measured after 15 mins by spectrophotometric method
[3] = molecular target: Intestinal-type alkaline phosphatase (Bos taurus, UniProt P19111); assay: Inhibition of calf intestinal alkaline phosphatase using CDP-star as substrate preincubated for 5 to 7 mins followed by substrate addition measured after 15 mins by spectrophotometric method
[4] = molecular target: T2, Alkaline phosphatase, tissue-nonspecific isozyme (Bos taurus) (UniProt P09487); assay: Inhibition of bovine TNAP at 0.2 mM using CDP-star as substrate preincubated for 5 to 7 mins followed by substrate addition measured after 15 mins by spectrophotometric method
T2 sequence (whole entry): T1 sequence (P09487 whole entry)

[5] = molecular target: Intestinal-type alkaline phosphatase (Bos taurus) (UniProt P19111); assay: Potency index, ratio of L-phenylalanine IC50 to test compound IC50 for calf intestinal alkaline phosphatase

Chain of Intestinal-type alkaline phosphatase (P19111 whole entry): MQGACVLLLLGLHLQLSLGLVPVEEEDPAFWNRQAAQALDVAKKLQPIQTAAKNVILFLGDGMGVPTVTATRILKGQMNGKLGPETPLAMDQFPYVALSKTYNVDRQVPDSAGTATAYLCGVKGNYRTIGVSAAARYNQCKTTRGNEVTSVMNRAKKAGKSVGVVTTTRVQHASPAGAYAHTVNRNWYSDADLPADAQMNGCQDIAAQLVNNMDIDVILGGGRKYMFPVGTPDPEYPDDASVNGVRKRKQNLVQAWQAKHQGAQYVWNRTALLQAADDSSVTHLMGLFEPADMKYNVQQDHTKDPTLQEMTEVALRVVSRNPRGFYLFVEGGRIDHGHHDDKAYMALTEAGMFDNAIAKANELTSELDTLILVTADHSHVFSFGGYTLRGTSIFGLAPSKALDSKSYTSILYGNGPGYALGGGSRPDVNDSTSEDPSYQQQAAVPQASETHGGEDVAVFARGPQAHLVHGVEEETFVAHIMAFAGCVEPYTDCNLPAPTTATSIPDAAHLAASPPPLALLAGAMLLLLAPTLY
Chain of Intestinal-type alkaline phosphatase (Bos taurus) (P19111 20-506 limits assumed): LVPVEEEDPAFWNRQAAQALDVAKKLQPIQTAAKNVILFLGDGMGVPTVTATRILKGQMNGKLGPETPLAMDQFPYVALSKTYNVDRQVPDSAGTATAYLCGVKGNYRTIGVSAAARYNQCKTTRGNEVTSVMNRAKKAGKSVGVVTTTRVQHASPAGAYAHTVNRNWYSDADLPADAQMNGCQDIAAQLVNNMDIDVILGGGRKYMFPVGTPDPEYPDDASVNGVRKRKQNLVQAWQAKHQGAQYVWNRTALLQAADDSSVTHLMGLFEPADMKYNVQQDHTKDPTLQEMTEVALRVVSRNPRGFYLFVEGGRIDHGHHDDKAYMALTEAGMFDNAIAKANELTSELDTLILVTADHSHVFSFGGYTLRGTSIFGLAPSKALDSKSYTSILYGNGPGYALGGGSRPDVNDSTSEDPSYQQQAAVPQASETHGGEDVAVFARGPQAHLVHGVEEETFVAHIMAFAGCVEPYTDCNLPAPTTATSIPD

| SMILES | IC50 [1] [µM] | inhibition [2] [%] | IC50 [3] [µM] | inhibition [4] [%] | Ratio IC50 [5] |
| --- | --- | --- | --- | --- | --- |
| CCCCCc1c(-c2ccc(C(F)(F)F)cc2)c(=O)c2cc([N+](=O)[O-])ccc2n1Cc1ccc(OC)cc1 | 38.5 | 48.6 |  |  |  |
| Cc1ccc(-c2cc(=O)c3cc(N)ccc3[nH]2)cc1 | 19.4 |  | 16.2 |  |  |
| COc1ccc(Cn2c(-c3ccc(C)cc3)c(-c3ccc(C)cc3)c(=O)c3cc([N+](=O)[O-])ccc32)cc1 |  |  | 2.92 | 46.1 | 40 |
| COc1ccc(C(C)n2c(-c3ccc(C)cc3)cc(=O)c3cc([N+](=O)[O-])ccc32)cc1 (stereo not drawn) | 17.9 |  | 4.75 |  |  |
| COc1ccc(Cn2c(-c3ccc(C)cc3)c(-c3ccc(C)cc3)c(=O)c3cc(N)ccc32)cc1 | 15.1 | 38.7 |  |  |  |
| CCCCCc1[nH]c2ccc([N+](=O)[O-])cc2c(=O)c1Br | 17.2 |  | 3.06 |  |  |
| COc1ccc(Cn2c(-c3ccc(C)cc3)cc(=O)c3cc([N+](=O)[O-])ccc32)cc1 | 133 | 48.6 |  |  |  |
| CCCCCc1c(Br)c(=O)c2cc([N+](=O)[O-])ccc2n1Cc1ccc(OC)cc1 | 9.51 |  | 122 |  |  |
| CCCCCc1cc(=O)c2cc([N+](=O)[O-])ccc2[nH]1 | 44.8 |  | 16.7 |  |  |
| COc1ccc(Cn2c(-c3ccc(C)cc3)c(-c3ccc(OC)cc3)c(=O)c3cc([N+](=O)[O-])ccc32)cc1 |  |  | 2.04 | 46.8 | 40 |
| COc1ccc(-c2c(-c3ccc(C)cc3)[nH]c3ccc(N)cc3c2=O)cc1 | 14.8 |  | 1.06 |  |  |

Second part, the molecule after the results:

| IC50 [1] [µM] | inhibition [2] [%] | IC50 [3] [µM] | inhibition [4] [%] | Ratio IC50 [5] | SMILES |
| --- | --- | --- | --- | --- | --- |
| 2.56 |  | 6.25 |  |  | Cc1ccc(-c2cc(=O)c3cc([N+](=O)[O-])ccc3[nH]2)cc1 |
| 6.19 |  | 8.34 |  |  | COc1ccc(Cn2c(-c3ccc(C)cc3)c(-c3ccc(C(F)(F)F)cc3)c(=O)c3cc([N+](=O)[O-])ccc32)cc1 |
| 6.02 |  | 1.67 |  |  | Cc1ccc(-c2[nH]c3ccc(NC(=O)C(F)(F)F)cc3c(=O)c2-c2ccc(C)cc2)cc1 |
| 6.47 |  | 12.1 |  |  | Cc1ccc(-c2[nH]c3ccc([N+](=O)[O-])cc3c(=O)c2Br)cc1 |
| 1.34 |  | 2.47 |  |  | Cc1ccc(-c2c(Br)c(=O)c3cc([N+](=O)[O-])ccc3n2C(C)c2ccccc2)cc1 (stereo not drawn) |
| 4.53 |  | 4.58 |  |  | COc1ccc(Cn2c(-c3ccc(C)cc3)c(C(F)(F)F)c(=O)c3cc([N+](=O)[O-])ccc32)cc1 |
| 2.69 |  | 4.38 |  |  | Cc1ccc(-c2[nH]c3ccc([N+](=O)[O-])cc3c(=O)c2-c2ccc(C(F)(F)F)cc2)cc1 |
| 4.22 |  | 2.43 |  |  | COc1ccc(Cn2c(-c3ccc(C)cc3)c(Br)c(=O)c3cc([N+](=O)[O-])ccc32)cc1 |
| 1.66 |  | 5.75 |  |  | CCc1ccc(-c2c(-c3ccc(C)cc3)n(Cc3ccc(OC)cc3)c3ccc([N+](=O)[O-])cc3c2=O)cc1 |
| 2.35 |  | 192 |  |  | COc1ccc(Cn2c(-c3ccc(C)cc3)c(-c3ccccc3C=O)c(=O)c3cc([N+](=O)[O-])ccc32)cc1 |
| 4.74 |  | 28.7 |  |  | COc1ccc(Cn2c(-c3ccc(C)cc3)c(-c3cc(C)cc(C)c3)c(=O)c3cc([N+](=O)[O-])ccc32)cc1 |
| 1.51 |  | 1.38 |  |  | CCCCCc1cc(=O)c2cc([N+](=O)[O-])ccc2n1Cc1ccc(OC)cc1 |
